Experimental data reported in patent publication US20240041042A1, “1-(PYRIDYL)-5-AZINYLPYRAZOLE DERIVATIVES, AND THEIR USE FOR CONTROL OF UNDESIRED PLANT GROWTH” (Bayer Aktiengesellschaft, priority 2020, published 2024).

Legend:
Assay type in all cases: in vivo
[1] = tested on: Alopecurus myosuroides (ALOMY); assay: Pre-emergence herbicidal action against ALOMY; conditions: scored visually after about 3 weeks, 100% = plants have died
Summary of the method: (§1)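 Application rates ran to 320 g/ha or lower, with several dosages tested on the same weeds. The compound, as wettable powder or emulsion concentrate, is sprayed pre-emergence onto soil over sown seeds; greenhouse growth follows, and effect is rated visually after roughly 3 weeks.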

[2] = tested on: Amaranthus retroflexus (AMARE); assay: Pre-emergence herbicidal action against AMARE; conditions: visual scoring after about 3 weeks vs untreated controls
Summary of the method: as §1

Avena fatua (AVEFA) [3] = assay: Pre-emergence herbicidal action against AVEFA; conditions: visual scoring after about 3 weeks vs untreated controls
Summary of the method: as §1

[4] = tested on: Digitaria sanguinalis (DIGSA); assay: Pre-emergence herbicidal action against DIGSA
Summary of the method: as §1

[5] = tested on: Echinochloa crus-galli (ECHCG); assay: Pre-emergence herbicidal action against ECHCG; conditions: dosage 320 g/ha
Summary of the method: as §1

Lolium rigidum (LOLRI) [6] = assay: Pre-emergence herbicidal action against LOLRI
Summary of the method: as §1

[7] = tested on: Matricaria inodora (MATIN); assay: Pre-emergence herbicidal action against MATIN; conditions: dosage 320 g/ha
Summary of the method: as §1

[8] = tested on: Pharbitis purpurea (PHBPU); assay: Pre-emergence herbicidal action against PHBPU; conditions: dosage 320 g/ha
Summary of the method: as §1

[9] = tested on: Polygonum convolvulus (POLCO); assay: Pre-emergence herbicidal action against POLCO
Summary of the method: as §1

Viola tricolor (VIOTR) [10] = assay: Pre-emergence herbicidal action against VIOTR
Summary of the method: as §1

Zea mays (ZEAMX) [11] = conditions: pre-emergence, 80 g/ha, crop plant compatibility, in comparison to untreated controls
Summary of the method: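 Crop injury rated visually in percent against untreated plants roughly 3 weeks after treatment (0% no effect, 100% plants dead). Compounds, as WP or EC with 0.5% additive in 600 l/ha water, were applied to the covering soil right after sowing; greenhouse growth. Suffixes a, b, c denote different dosages.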

[12] = tested on: Alopecurus myosuroides (ALOMY); assay: Post-emergence herbicidal action against ALOMY; conditions: visual rating about 3 weeks after treatment vs untreated controls (100% = plants have died, 0% = like control plants)
Summary of the method: (§2)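 Greenhouse plants sprayed at the one-leaf stage, 2–3 weeks after sowing, with WP or EC formulations plus 0.5% additive at 600 l/ha water. Activity rated visually after about 3 weeks versus untreated controls (100% = dead, 0% = like control), at 320 g/ha or lower.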

[13] = tested on: Amaranthus retroflexus (AMARE); assay: Post-emergence herbicidal action against AMARE; conditions: 320 g/ha, visual rating about 3 weeks after treatment
Summary of the method: as §2

Avena fatua (AVEFA) [14] = assay: Post-emergence herbicidal action against AVEFA; conditions: visual rating about 3 weeks after treatment
Summary of the method: as §2

[15] = tested on: Digitaria sanguinalis (DIGSA); assay: Post-emergence herbicidal action against DIGSA; conditions: visual rating about 3 weeks after treatment
Summary of the method: as §2

[16] = tested on: Echinochloa crus-galli (ECHCG); assay: Post-emergence herbicidal action against ECHCG
Summary of the method: as §2

Lolium rigidum (LOLRI) [17] = assay: Post-emergence herbicidal action against LOLRI
Summary of the method: as §2

[18] = tested on: Matricaria inodora (MATIN); assay: Post-emergence herbicidal action against MATIN
Summary of the method: as §2

[19] = tested on: Pharbitis purpurea (PHBPU); assay: Post-emergence herbicidal action against PHBPU; conditions: dosage 320 g/ha
Summary of the method: as §2

[20] = tested on: Polygonum convolvulus (POLCO); assay: Post-emergence herbicidal action against POLCO
Summary of the method: as §2

Setaria viridis (SETVI) [21] = assay: Post-emergence herbicidal action against SETVI; conditions: dosage 320 g/ha
Summary of the method: as §2

Viola tricolor (VIOTR) [22] = assay: Post-emergence herbicidal action against VIOTR
Summary of the method: as §2

Oryza sativa (ORYSA) = conditions: crop plant compatibility, 80 g/ha, effect in comparison to untreated controls
Summary of the method: (§3)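 Visual rating (% effect vs. untreated plants; 100% = plant death) made about 3 weeks after treatment. Plants had been sprayed at one-leaf stage, 2–3 weeks post-sowing, with aqueous WP/EC preparations containing 0.5% additive, 600 l/ha water volume; a, b, c mark dose levels.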

Setaria viridis (SETVI) [23] = assay: Pre-emergence herbicidal action against SETVI
Summary of the method: as §1

[24] = tested on: Verconica persica (VERPE); assay: Pre-emergence herbicidal action against VERPE; conditions: dosage 320 g/ha
Summary of the method: as §1

Zea mays (ZEAMX) [25] = tested on: Zea mays (ZEAMX)
Summary of the method: as §3

[26] = 80 g/ha, visual scoring after about 3 weeks vs untreated controls

COC(=O)CCOC(=O)C(C)Oc1nn(-c2ccccn2)c(-c2ccc(F)nc2)c1C(F)(F)F (stereo not drawn) [Example I-293]
Pre-emergence action against ALOMY ([1]; 80 g/ha): 90% | Pre-emergence action against ALOMY ([1]; 320 g/ha): 100% | Pre-emergence action against AMARE in % ([2]; 320 g/ha): 100% | Pre-emergence action against AVEFA in % (Avena fatua (AVEFA) [3]; 80 g/ha): 80% | Pre-emergence action against AVEFA in % (Avena fatua (AVEFA) [3]; 320 g/ha): 90% | Pre-emergence action against DIGSA in % [4, 26]: 80% | Pre-emergence action against DIGSA in % ([4]; dosage 320 g/ha): 100% | Pre-emergence action against ECHCG in % [5]: 90% | Pre-emergence action against LOLRI in % (Lolium rigidum (LOLRI) [6]; dosage 80 g/ha): 100% | Pre-emergence action against LOLRI in % (Lolium rigidum (LOLRI) [6]; dosage 320 g/ha): 100% | Pre-emergence action against MATIN in % [7]: 80% | Pre-emergence action against PHBPU in % [8]: 80% | Pre-emergence action against POLCO in % ([9]; dosage 320 g/ha): 80% | Pre-emergence action against VIOTR in % (Viola tricolor (VIOTR) [10]; 320 g/ha, Viola tricolor): 100% | Pre-emergence action against VIOTR in % (Viola tricolor (VIOTR) [10]; dosage 80 g/ha): 80% | Pre-emergence action against ZEAMX in % (Zea mays (ZEAMX) [11]): 20% | Post-emergence action against ALOMY in % ([12]; 80 g/ha): 90% | Post-emergence action against ALOMY in % ([12]; 320 g/ha): 90% | Post-emergence action against AMARE in % [13]: 80% | Post-emergence action against AVEFA in % (Avena fatua (AVEFA) [14]; 80 g/ha): 80% | Post-emergence action against AVEFA in % (Avena fatua (AVEFA) [14]; 320 g/ha): 90% | Post-emergence action against DIGSA in % ([15]; 320 g/ha): 80% | Post-emergence action against ECHCG in % ([16]; dosage 320 g/ha): 80% | Post-emergence action against LOLRI in % (Lolium rigidum (LOLRI) [17]; dosage 80 g/ha): 80% | Post-emergence action against LOLRI in % (Lolium rigidum (LOLRI) [17]; dosage 320 g/ha): 80% | Post-emergence action against MATIN in % ([18]; dosage 320 g/ha): 80% | Post-emergence action against PHBPU in % [19]: 80% | Post-emergence action against POLCO in % ([20]; dosage 80 g/ha): 80% | Post-emergence action against POLCO in % ([20]; dosage 320 g/ha): 80% | Post-emergence action against SETVI in % (Setaria viridis (SETVI) [21]): 80% | Post-emergence action against VIOTR in % (Viola tricolor (VIOTR) [22]; 80 g/ha): 80% | Post-emergence action against VIOTR in % (Viola tricolor (VIOTR) [22]; 320 g/ha): 80% | Post-emergence action against ORYSA in % (Oryza sativa (ORYSA)): 0%

N#CCOC(=O)COc1nn(-c2ncccc2F)c(-c2ccc(F)nc2)c1Br [Example I-30]
Pre-emergence action against ALOMY ([1]; 80 g/ha): 100% | Pre-emergence action against ALOMY ([1]; 320 g/ha): 100% | Pre-emergence action against AMARE in % ([2]; 80 g/ha): 100% | Pre-emergence action against AMARE in % ([2]; 320 g/ha): 100% | Pre-emergence action against AVEFA in % (Avena fatua (AVEFA) [3]; 320 g/ha): 100% | Pre-emergence action against DIGSA in % [4, 26]: 100% | Pre-emergence action against DIGSA in % ([4]; dosage 320 g/ha): 100% | Pre-emergence action against ECHCG in % [5]: 100% | Pre-emergence action against LOLRI in % (Lolium rigidum (LOLRI) [6]; dosage 80 g/ha): 90% | Pre-emergence action against LOLRI in % (Lolium rigidum (LOLRI) [6]; dosage 320 g/ha): 100% | Pre-emergence action against MATIN in % [7]: 90% | Pre-emergence action against PHBPU in % [8]: 90% | Pre-emergence action against POLCO in % ([9]; dosage 80 g/ha): 80% | Pre-emergence action against POLCO in % ([9]; dosage 320 g/ha): 90% | Pre-emergence action against SETVI in % (Setaria viridis (SETVI) [23]; dosage 80 g/ha): 90% | Pre-emergence action against SETVI in % (Setaria viridis (SETVI) [23]; dosage 320 g/ha): 100% | Pre-emergence action against VERPE in % [24]: 90% | Pre-emergence action against VIOTR in % (Viola tricolor (VIOTR) [10]; 320 g/ha, Viola tricolor): 100% | Pre-emergence action against VIOTR in % (Viola tricolor (VIOTR) [10]; dosage 80 g/ha): 90% | Pre-emergence action against ZEAMX in % (Zea mays (ZEAMX) [11]): 10% | Post-emergence action against ALOMY in % ([12]; 80 g/ha): 90% | Post-emergence action against DIGSA in % ([15]; 80 g/ha): 90% | Post-emergence action against ECHCG in % ([16]; dosage 80 g/ha): 80% | Post-emergence action against MATIN in % ([18]; dosage 80 g/ha): 90% | Post-emergence action against VIOTR in % (Viola tricolor (VIOTR) [22]; 80 g/ha): 80% | Post-emergence action against ZEAMX in % (crop plant compatibility) (Zea mays (ZEAMX) [25]; 20 g/ha, ZEAMX, effect in comparison to untreated controls): 20% | Post-emergence action against ZEAMX in % (Zea mays (ZEAMX) [25]; crop plant compatibility, 80 g/ha, effect vs untreated controls): 20%
